Data set [1] concerns the target T1, Recombinant human MMP 12 catalytic domain (Homo sapiens, UniProt P39900).
T1 construct: Recombinant human MMP 12 catalytic domain; made in house
The data set can be described thus: Isolated enzyme assay MMP12. It is filed as biochemical. The following applies: read-out: hMMP12 IC50. As for the experimental part: Recombinant human MMP 12 catalytic domain may be expressed and purified as described by Parkar A. A. et al, (2000), Protein Expression and Purification, 20, 152. The purified enzyme can be used to monitor inhibitors of activity as follows: MMP12 (50 ng/ml final concentration) is incubated for 60 minutes at room temperature with the synthetic substrate Mca-Pro-Cha-Gly-Nva-His-Ala-Dpa-NH2 (10 μM) in assay buffer (0.1M “Tris-HCP” (trade mark) buffer, pH 7.3 containing 0.1M NaCl, 20 mM CaCl2, 0.020 mM ZnCl and 0.05% (w/v) “Brij 35” (trade mark) detergent) in the presence (10 concentrations) or absence of inhibitors. Activity is determined by measuring the fluorescence at λex 320 nm and λem 405 nm. Percent inhibition is calculated as follows: % Inhibition is equal to the [Fluorescenceplus inhibitor−Fluorescencebackground] divided by the [Fluorescenceminus inhibitor−Fluorescencebackground]. MMP8

A short description of data set [2]: Determination of solubility in 0.1M phosphate buffer, pH 7.4. The following applies: 20 °C, pH 7.4, aqueous buffer, thermodynamic from solid.
Description: Protocol for Determination of Solubility
The test compound (1 mg) was weighed into a 2 mL glass vial with a screw cap and 0.1 M phosphate buffer pH 7.4. (1.00 mL) was added. The sample vial was then sonicated for about 10 minutes and then placed on a shake board overnight at 20° C. The contents of the sample vial were then filtered through a Millipore Millex-LH 0.45 μm filter into a new 2 mL glass vial to give a clear solution. The clear solution (40 μL) was transferred to a new 2 mL glass vial and diluted with 0.1 M phosphate buffer, pH 7.4 (960 μL).
A standard calibration curve for each particular test compound was established using solutions of known concentration. These solutions of known concentration were normally chosen to have concentrations of ˜10 μg/mL and ˜50 μg/mL. They were prepared by dissolving a known weight of the compound in 99.5% ethanol (500 μL) and then sonicating for one minute if necessary. If the compound was still not completely dissolved, DMSO (500 μL) was added and the mixture sonicated for an additional one minute. The resulting solution was then diluted to the appropriate volume with a mixture of acetonitrile/100 mM ammonium acetate pH 5.5 20-50/80-50. If necessary, a further, more dilute, standard solution was prepared by dilution.
The target of data set [3] is T2, Recombinant human MMP 14 catalytic domain (Homo sapiens, UniProt P50281).
T2 construct: Recombinant human MMP 14 catalytic domain; made in house
The data set can be described thus: Isolated enzyme assay MMP14. In kind it is biochemical. The following applies: read-out: hMMP14 IC50. As for the experimental part: Recombinant human MMP 14 catalytic domain may be expressed and purified as described by Parkar A. A. et al, (2000), Protein Expression and Purification, 20, 152. The purified enzyme can be used to monitor inhibitors of activity as follows: MMP14 (10 ng/ml final concentration) is incubated for 60 minutes at room temperature with the synthetic substrate Mca-Pro-Cha-Gly-Nva-His-Ala-Dpa-NH2 (10 μM) in assay buffer (0.1M “Tris-HCl” (trade mark) buffer, pH 7.5 containing 0.1M NaCl, 20 mM CaCl2, 0.020 mM ZnCl and 0.05% (w/v) “Brij 35” (trade mark) detergent) in the presence (5 concentrations) or absence of inhibitors. Activity is determined by measuring the fluorescence at λex 320 nm and λem 405 nm. Percent inhibition is calculated as follows: % Inhibition is equal to the [Fluorescenceplus inhibitor−Fluorescencebackground] divided by the [Fluorescenceminus inhibitor−Fluorescencebackground].

A further data set has as its target T3, hMMP8 (Homo sapiens, UniProt P22894).
T3 construct: purchased Calbiochem
Description: Isolated enzyme assay MMP8. It is filed as biochemical. Here is the method:
Purified pro-MMP8 is purchased from Calbiochem. The enzyme (at 10 μg/ml) is activated by p-amino-phenyl-mercuric acetate (APMA) at 1 mM for 2.5 h, 35° C. The activated enzyme can be used to monitor inhibitors of activity as follows: MMP8 (200 ng/ml final concentration) is incubated for 90 minutes at 35° C. (80% H2O) with the synthetic substrate Mca-Pro-Cha-Gly-Nva-His-Ala-Dpa-NH2 (12.5 μM) in assay buffer (0.1M “Tris-HCl” (trade mark) buffer, pH 7.5 containing 0.1M NaCl, 30 mM CaCl2, 0.040 mM ZnCl and 0.05% (w/v) “Brij 35” (trade mark) detergent) in the presence (10 concentrations) or absence of inhibitors. Activity is determined by measuring the fluorescence at λex 320 nm and λem 405 nm. Percent inhibition is calculated as follows: % Inhibition is equal to the [Fluorescenceplus inhibitor−Fluorescencebackground] divided by the [Fluorescenceminus inhibitor−Fluorescencebackground]. MMP9

A further data set relates to plasma protein. Description: Plasma protein binding by ultrafiltration. To be noted: 10 μM, room temperature.
For data set [4], the target named is T4, Recombinant human MMP19 catalytic domain (Homo sapiens, UniProt Q99542).
T4 construct: Recombinant human MMP19 catalytic domain; made in house
Description: Isolated enzyme assay MMP19. In kind it is biochemical. The following applies: read-out: hMMP19 IC50. As for the experimental part:
Recombinant human MMP19 catalytic domain may be expressed and purified as described by Parkar A. A. et al, (2000), Protein Expression and Purification, 20:152. The purified enzyme can be used to monitor inhibitors of activity as follows: MMP19 (40 ng/ml final concentration) is incubated for 120 minutes at 35° C. with the synthetic substrate Mca-Pro-Leu-Ala-Nva-Dpa-Ala-Arg-NH2 (5 μM) in assay buffer (0.1M “Tris-HCl ” (trade mark) buffer, pH 7.3 containing 0.1M NaCl, 20 mM CaCl2, 0.020 mM ZnCl and 0.05% (w/v) “Brij 35” (trade mark) detergent) in the presence (5 concentrations) or absence of inhibitors. Activity is determined by measuring the fluorescence at λex 320 nm and λem 405 nm. Percent inhibition is calculated as follows: % Inhibition is equal to the [Fluorescenceplus inhibitor−Fluorescencebackground] divided by the [Fluorescenceminus inhibitor−Fluorescencebackground].

Data set [5] has as its target T5, Recombinant human MMP9 catalytic domain (Homo sapiens, UniProt P14780).
T5 sequence (P14780 with tags, fused parts or gaps DEL216-390 limits assumed): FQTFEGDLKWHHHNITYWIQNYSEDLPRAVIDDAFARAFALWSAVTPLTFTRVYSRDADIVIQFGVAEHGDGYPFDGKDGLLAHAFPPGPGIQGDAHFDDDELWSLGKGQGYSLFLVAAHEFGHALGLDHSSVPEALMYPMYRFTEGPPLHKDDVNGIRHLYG
Description: Isolated enzyme assay MMP9. It is filed as biochemical. The following applies: read-out: hMMP9 IC50. Here is the method: Recombinant human MMP9 catalytic domain was expressed and then purified by Zn chelate column chromatography followed by hydroxamate affinity column chromatography. The enzyme can be used to monitor inhibitors of activity as follows: MMP9 (5 ng/ml final concentration) is incubated for 30 minutes at RT with the synthetic substrate Mca-Pro-Cha-Gly-Nva-His-Ala-Dpa-NH2 (5 μM) in assay buffer (0.1 M “Tris-HCl” (trade mark) buffer, pH 7.3 containing 0.1M NaCl, 20 mM CaCl2, 0.020 mM ZnCl and 0.05% (w/v) “Brij 35” (trade mark) detergent) in the presence (10 concentrations) or absence of inhibitors. Activity is determined by measuring the fluorescence at λex 320 nm and λem 405 nm. Percent inhibition is calculated as follows: % Inhibition is equal to the [Fluorescenceplus inhibitor−Fluorescencebackground] divided by the [Fluorescenceminus inhibitor−Fluorescencebackground]. MMP14
A protocol for testing against other matrix metalloproteinases, including MMP9, using expressed and purified pro MMP is described, for instance, by C. Graham Knight et al., (1992) FEBS Lett., 296(3), 263-266.

Values after ≈ are worked out from the molar mass of the structure shown.

What is called IC50 is the concentration that gives 50% inhibition. For orientation: solubility means the dissolved amount per volume that the medium holds. A low value points to little dissolved substance.

T3 sequence (P22894 101-467): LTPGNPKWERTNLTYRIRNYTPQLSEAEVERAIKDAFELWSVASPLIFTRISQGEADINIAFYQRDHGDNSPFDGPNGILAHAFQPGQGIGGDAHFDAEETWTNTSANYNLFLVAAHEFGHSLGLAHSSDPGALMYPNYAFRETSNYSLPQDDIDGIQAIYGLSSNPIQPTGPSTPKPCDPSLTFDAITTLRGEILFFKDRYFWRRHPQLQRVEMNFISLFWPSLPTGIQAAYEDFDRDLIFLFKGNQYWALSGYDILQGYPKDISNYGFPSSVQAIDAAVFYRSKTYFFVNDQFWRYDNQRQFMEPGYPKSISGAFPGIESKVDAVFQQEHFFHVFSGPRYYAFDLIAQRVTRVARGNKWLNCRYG
T1 sequence (P39900 106-263 limits assumed): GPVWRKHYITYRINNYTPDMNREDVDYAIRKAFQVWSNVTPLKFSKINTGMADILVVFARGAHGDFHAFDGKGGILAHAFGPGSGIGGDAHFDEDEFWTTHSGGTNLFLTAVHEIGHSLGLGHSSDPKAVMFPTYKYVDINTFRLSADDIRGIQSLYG
T4 sequence (Q99542 98-256 limits assumed): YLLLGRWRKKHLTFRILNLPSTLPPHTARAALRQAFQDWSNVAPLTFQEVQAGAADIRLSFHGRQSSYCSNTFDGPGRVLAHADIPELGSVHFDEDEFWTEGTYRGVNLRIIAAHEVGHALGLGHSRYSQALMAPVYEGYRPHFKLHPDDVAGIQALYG
Description for plasma protein: Plasma protein binding was determined by ultrafiltration in an automated 96 well format assay. On each test occasion the plasma protein binding of a reference compound (budesonide) was monitored in parallel.
Test compounds (10 mM dissolved in DMSO) were added to plasma to a final concentration of 10 μM and equilibrated at room temperature for 10 minutes. 350 μL of the plasma was transferred to an ultrafiltration plate, Microcon-96 (10 kDa cutoff, Millipore). The ultrafiltration plate was centrifuged at 3000 G for 70 minutes at room temperature. After centrifugation, the concentration of the compounds in the obtained plasma water (the unbound fraction) was determined by LC-MS/MS using a 3-point calibration curve and compared to the concentration in the original spiked plasma.
The analyses were performed using a gradient chromatographic system with acetic acid/acetonitrile as mobile phases.

`Cc1ccc(C#CC2=CCN(S(=O)(=O)C[C@@]3(C)NC(=O)NC3=O)CC2)cc1` [(5S)-5-methyl-5-({[4-[(4-methylphenyl)ethynyl]-3,6-dihydropyridin-1(2H)-yl]sulfonyl}methyl)imidazolidine-2,4-dione, reference compound]: the IC50 in data set [1] worked out at 3 nM; in data set [3], 4430 nM; at hMMP8 it was 384 nM; in data set [4] it was 1970 nM; in data set [5], 34 nM. The compound also yielded a solubility in data set [2] of 72 µM (≈ 27.9 µg/mL). Also, the “Protein binding (% free)” value in the data set with plasma protein was determined as 2.25 % free.
Consider `C[C@]1(CS(=O)(=O)N2CC=C(C#Cc3cnc(C4CC4)nc3)CC2)NC(=O)NC1=O` [Example 1, (5S)-5-({[4-[(2-Cyclopropylpyrimidin-5-yl)ethynyl]-3,6-dihydropyridin-1(2H) -yl]sulfonyl}methyl)-5-methylimidazolidine-2,4-dione], for which the IC50 in data set [1] was 6 nM; in data set [3], greater than 10000 nM; on hMMP8, 2530 nM; in data set [5], 5 nM. In data set [2], this compound had a solubility of 396 µM (≈ 165 µg/mL). For the same compound, the “Protein binding (% free)” value with plasma protein was 18 % free.
On to `C[C@]1(CS(=O)(=O)N2CC=C(C#Cc3ccc(Cl)cc3)CC2)NC(=O)NC1=O` [(5S)-5-({[4-[(4-chlorophenyl)ethynyl]-3,6-dihydropyridin-1(2H)-yl]sulfonyl}methyl)-5-methylimidazolidine-2,4-dione, reference compound], for which the IC50 in data set [1] turned out to be 2 nM; in data set [3], 4300 nM; against hMMP8, 180 nM; in data set [4] it was 3980 nM; in data set [5], 9 nM. The same compound registered a solubility in data set [2] of 49 µM (≈ 20 µg/mL). The “Protein binding (% free)” value with plasma protein worked out at 1.75 % free.
On to `C[C@]1(CS(=O)(=O)N2CC=C(C#Cc3cnc(C(F)(F)F)nc3)CC2)NC(=O)NC1=O` [Example 3], for which the “Solubility pH 7.4” value is 118 μM. The half-maximal inhibitory concentration (IC50) in data set [1] worked out at 6 nM. Further, the IC50 in data set [3] was greater than 10000 nM. The half-maximal inhibitory concentration (IC50) on hMMP8 was determined as 547 nM. The IC50 in data set [4] came to 7900 nM. For the same compound, the 50% inhibitory concentration (IC50) in data set [5] worked out at 5 nM.
With `CCc1ncc(C#CC2=CCN(S(=O)(=O)C[C@@]3(C)NC(=O)NC3=O)CC2)cn1.O=C(O)C(F)(F)F` [Example 5, (5S)-5-({[4-[(2-Ethylpyrimidin-5-yl)ethynyl]-3,6-dihydropyridin-1(2H) -yl]sulfonyl}methyl)-5-methylimidazolidine-2,4-dione trifluoroacetate], the 50% inhibitory concentration (IC50) in data set [1] is 9 nM; in data set [3] it was greater than 10000 nM; at hMMP8, 1140 nM; in data set [5] it was 9 nM. Further, the solubility in data set [2] stood at 91 µM. The “Protein binding (% free)” value in the data set on plasma protein was 47 % free.

(Values after patent publication US7989620B2, “Hydantoin derivatives for the treatment of obstructive airway diseases” (AstraZeneca AB, priority 2004, dated 2011).)
